Laboratory results taken from patent US20230265247A1, “PROCESS FOR PREPARING POLYIMIDES” (Technische Universität Wien, priority 2020, published 2023).

Assay: not given
Settings: salts of 1,2,3,4-butanetetracarboxylic acid; 1 ml distilled water with around 20 to 40% by weight of salt, stirred 15 minutes

Molecule | Salt is water-soluble
Nc1n[nH]c(N)n1 [Example V38] | no
Nc1ccc(Cc2ccc(N)cc2)cc1 [Example V39] | no
Tricyclo[5.2.1.0^2,6]decane-3(4),8(9)-bis(methanammonium)-dihydrogen-1,2,3,4-butane-tetracarboxylate [Example B20] | yes

Same assay, conditions: salts of 1,2,3,4-cyclobutanetetracarboxylic acid; 1 ml distilled water with around 20 to 40% by weight of salt, stirred 15 minutes

Molecule | Salt is water-soluble
NCC1CC2CC1CC2CN.O=C(O)C1C(C(=O)O)C(C(=O)O)C1C(=O)O (stereo not shown) [Example B21, Norbornane bis(methylammonium)-dihydrogen-1,2,3,4-cyclobutanetetracarboxylate] | yes
NCCCCN.O=C(O)C1C(C(=O)O)C(C(=O)O)C1C(=O)O (stereo not shown) [Example V42] | yes
CC1(C)CC(N)CC(C)(CN)C1.O=C(O)C1C(C(=O)O)C(C(=O)O)C1C(=O)O (stereo not shown) [Example V54] | yes
NCc1cccc(CN)c1.O=C(O)C1C(C(=O)O)C(C(=O)O)C1C(=O)O (stereo not shown) [Example V55] | yes
Tricyclo[5.2.1.0^2,6]decane-3(4),8(9)-bis(methanammonium)-dihydrogen-1,2,3,4-cyclobutanetetracarboxylate [Example B22] | yes

Same assay, conditions: salts of 1,2,3,4-cyclopentanetetracarboxylic acid; 1 ml distilled water with around 20 to 40% by weight of salt, stirred 15 minutes

Molecule | Salt is water-soluble
NCC1CC2CC1CC2CN.O=C(O)C1CC(C(=O)O)C(C(=O)O)C1C(=O)O (stereo not shown) [Example B23, Norbornane bis(methylammonium)-dihydrogen-1,2,3,4-cyclopentanetetracarboxylate] | yes
NCCCCN.O=C(O)C1CC(C(=O)O)C(C(=O)O)C1C(=O)O (stereo not shown) [Example V57] | yes
CC(CN)CCCN.O=C(O)C1CC(C(=O)O)C(C(=O)O)C1C(=O)O (stereo not shown) [Example V60] | yes
NCCCCCCCCCN.O=C(O)C1CC(C(=O)O)C(C(=O)O)C1C(=O)O (stereo not shown) [Example V63] | yes
CC1(C)CC(N)CC(C)(CN)C1.O=C(O)C1CC(C(=O)O)C(C(=O)O)C1C(=O)O (stereo not shown) [Example V69] | yes
Tricyclo[5.2.1.0^2,6]decane-3(4),8(9)-bis(methanammonium)-dihydrogen-1,2,3,4-cyclopentanetetracarboxylate [Example B24] | yes

Same assay, conditions: salts of 1,2,4,5-cyclohexanetetracarboxylic acid; 1 ml distilled water with around 20 to 40% by weight of salt, stirred 15 minutes

Molecule | Salt is water-soluble
NCCCCN.O=C(O)C1CC(C(=O)O)C(C(=O)O)CC1C(=O)O (stereo not shown) [Example V72] | yes
NCCCCCCCCCN.O=C(O)C1CC(C(=O)O)C(C(=O)O)CC1C(=O)O (stereo not shown) [Example V78] | yes
CC1(C)CC(N)CC(C)(CN)C1.O=C(O)C1CC(C(=O)O)C(C(=O)O)CC1C(=O)O (stereo not shown) [Example V84] | yes
NCc1cccc(CN)c1 [Example V85] | yes
Norbornane bis(methylammonium)-dihydrogen-1,2,4,5-cyclohexanetetracarboxylate [Example B25] | yes
Tricyclo[5.2.1.0^2,6]decane-3(4),8(9)-bis(methanammonium)-dihydrogen-1,2,4,5-cyclohexanetetracarboxylate [Example B26] | yes

Same assay, conditions: salts of 3,3′,4,4′-benzophenonetetracarboxylic acid; 1 ml distilled water with around 20 to 40% by weight of salt, stirred 15 minutes

Molecule | Salt is water-soluble
NCCCCN.O=C(c1ccc(C(=O)O)c(C(=O)O)c1)c1ccc(C(=O)O)c(C(=O)O)c1 [Example V86] | no
CC(C)(CN)CN.O=C(c1ccc(C(=O)O)c(C(=O)O)c1)c1ccc(C(=O)O)c(C(=O)O)c1 [Example V88] | yes
NCCCCCCCCCCCCN.O=C(c1ccc(C(=O)O)c(C(=O)O)c1)c1ccc(C(=O)O)c(C(=O)O)c1 [Example V94] | no
CC1(C)CC(N)CC(C)(CN)C1.O=C(c1ccc(C(=O)O)c(C(=O)O)c1)c1ccc(C(=O)O)c(C(=O)O)c1 [Example V95] | yes
CC1CC(CC2CCC(N)C(C)C2)CCC1N.O=C(c1ccc(C(=O)O)c(C(=O)O)c1)c1ccc(C(=O)O)c(C(=O)O)c1 [Example V97] | yes
Nc1cccc(N)n1 [Example V104] | no
Norbornane bis(methylammonium)-dihydrogen-3,3′,4,4′-benzophenonetetracarboxylate [Example B27] | yes
Tricyclo[5.2.1.0^2,6]decane-3(4),8(9)-bis(methanammonium)-dihydrogen-3,3′,4,4′-benzophenonetetracarboxylate [Example B28] | yes

Same assay, conditions: salts of tetrahydrofuran-2,3,4,5-tetracarboxylic acid; 1 ml distilled water with around 20 to 40% by weight of salt, stirred 15 minutes; no = no clear solution

Molecule | Salt is water-soluble
NCCCCN.O=C(O)C1OC(C(=O)O)C(C(=O)O)C1C(=O)O (stereo not shown) [Example B2, Butane-1,4-diammonium-dihydrogen-tetrahydrofuran-2,3,4,5-tetracarboxylate] | yes
NCCCCCN.O=C(O)C1OC(C(=O)O)C(C(=O)O)C1C(=O)O (stereo not shown) [Example B3, Pentane-1,5-diammonium-dihydrogen-tetrahydrofuran-2,3,4,5-tetracarboxylate] | yes
CC(C)(CN)CN.O=C(O)C1OC(C(=O)O)C(C(=O)O)C1C(=O)O (stereo not shown) [Example B4, 2,2-Dimethylpropane-1,3-diammonium-dihydrogen-tetrahydrofuran-2,3,4,5-tetracarboxylate] | yes
CC(CN)CCCN.O=C(O)C1OC(C(=O)O)C(C(=O)O)C1C(=O)O (stereo not shown) [Example B6, 2-Methylpentane-1,5-diammonium-dihydrogen-tetrahydrofuran-2,3,4,5-tetracarboxylate] | yes
NCCCCCCCN.O=C(O)C1OC(C(=O)O)C(C(=O)O)C1C(=O)O (stereo not shown) [Example B7, Heptane-1,7-diammonium-dihydrogen-tetrahydrofuran-2,3,4,5-tetracarboxylate] | yes
NCCCCCCCCN.O=C(O)C1OC(C(=O)O)C(C(=O)O)C1C(=O)O (stereo not shown) [Example B8, Octane-1,8-diammonium-dihydrogen-tetrahydrofuran-2,3,4,5-tetracarboxylate] | yes
NCCCCCCCCCN.O=C(O)C1OC(C(=O)O)C(C(=O)O)C1C(=O)O (stereo not shown) [Example B9, Nonane-1,9-diammonium-dihydrogen-tetrahydrofuran-2,3,4,5-tetracarboxylate] | yes
NC1CCCC(N)C1.O=C(O)C1OC(C(=O)O)C(C(=O)O)C1C(=O)O (stereo not shown) [Example B11, Cyclohexane-1,3-diammonium-dihydrogen-tetrahydrofuran-2,3,4,5-tetracarboxylate] | yes
NC1CCC(N)CC1.O=C(O)C1OC(C(=O)O)C(C(=O)O)C1C(=O)O (stereo not shown) [Example B12, Cyclohexane-1,4-diammonium-dihydrogen-tetrahydrofuran-2,3,4,5-tetracarboxylate] | yes
NCC1CCCC(CN)C1.O=C(O)C1OC(C(=O)O)C(C(=O)O)C1C(=O)O (stereo not shown) [Example B13, Cyclohexane-1,3-bis(methanammonium)-dihydrogen-tetrahydrofuran-2,3,4,5-tetracarboxylate] | yes
NCC1CCC(CN)CC1.O=C(O)C1OC(C(=O)O)C(C(=O)O)C1C(=O)O (stereo not shown) [Example B14, Cyclohexane-1,4-bis(methanammonium)-dihydrogen-tetrahydrofuran-2,3,4,5-tetracarboxylate] | yes
CC1(C)CC(N)CC(C)(CN)C1.O=C(O)C1OC(C(=O)O)C(C(=O)O)C1C(=O)O (stereo not shown) [Example B16, Isophorone diammonium-dihydrogen-tetrahydrofuran-2,3,4,5-tetracarboxylate] | yes
CC1CC(CC2CCC(N)C(C)C2)CCC1N.O=C(O)C1OC(C(=O)O)C(C(=O)O)C1C(=O)O (stereo not shown) [Example B18, 4,4′-Methylene-bis(2-methylcyclohexylammonium)-dihydrogen-tetrahydrofuran-2,3,4,5-tetracarboxylate] | yes
NC1CCC(CC2CCC(N)CC2)CC1.O=C(O)C1OC(C(=O)O)C(C(=O)O)C1C(=O)O (stereo not shown) [Example V2] | no
Cc1ccc(N)cc1N [Example V7] | no
Nc1cccc(N)n1.O=C(O)C1OC(C(=O)O)C(C(=O)O)C1C(=O)O (stereo not shown) [Example V9] | no
Nc1ccc(Cc2ccc(N)cc2)cc1.O=C(O)C1OC(C(=O)O)C(C(=O)O)C1C(=O)O (stereo not shown) [Example V11] | no
Cc1cc(-c2ccc(N)c(C)c2)ccc1N [Example V12] | no

Assay: Water solubility of the diamines, literature values
Format: physicochemical
Settings: ratio of cited solubilities

Molecule | water solubility less by a factor, versus 4,4′-methylene-bis(cyclohexylamine)
CC1CC(CC2CCC(N)C(C)C2)CCC1N (stereo not shown) [4,4′-methylene-bis(2-methylcyclohexylamine)] | 45

Assay: not given
Settings: according to perflavory.com; cited from earlier work

Molecule | water solubility of the diamine
CC1CC(CC2CCC(N)C(C)C2)CCC1N (stereo not shown) [4,4′-methylene-bis(2-methylcyclohexylamine)] | around 88 mg/l

Same assay, conditions: cited in Wikipedia; cited from earlier work

Molecule | water solubility of the diamine
NC1CCC(CC2CCC(N)CC2)CC1 (stereo not shown) [4,4′-methylene-bis(cyclohexylamine)] | about 4 g/l
